Assay results: BigSolDB 2.1

C[C@H](N)C(=O)O
solubility (mole fraction)
Conditions	283.15 K	293.15 K	303.15 K	313.15 K	323.15 K
in acetone	7.1e-05	0.000116	0.000138	0.000166	0.000202
in acetonitrile	7.6e-05	0.000121	0.000157	0.000178	0.000209
in ethanol	0.000193	0.000226	0.000244	0.000251	0.00027
in ethyl acetate	7.8e-05	0.00014	0.00016	0.00018	0.000217
in isobutanol	0.000294	0.000314	0.000332	0.000346	0.000361
in isopropanol	8.2e-05	0.000144	0.000174	0.00019	0.000245
in methanol	0.000407	0.000428	0.00049	0.000531	0.00062
in n-butanol	0.000414	0.000449	0.000517	0.000611	0.000895
in n-pentanol	0.000216	0.000253	0.00032	0.000382	0.000465
in n-propanol	0.000122	0.000215	0.000261	0.000313	0.000452
in sec-butanol	0.000297	0.000333	0.000407	0.000552	0.000734
in water	0.0279	0.0308	0.0342	0.038	0.042
